What is called inhibition is the change of the read-out against control, counted positive when it falls.

SMILES strings stand for the structures. Counter-ions that a name gives are not always drawn.

For assay [1], the target named is T1, B1R receptor of the rat (rB1R) (Rattus norvegicus, UniProt P97583).
T1 construct: expressed in transfected cells; host or cells: CHO K1 cells
T1 sequence (P97583 1-337): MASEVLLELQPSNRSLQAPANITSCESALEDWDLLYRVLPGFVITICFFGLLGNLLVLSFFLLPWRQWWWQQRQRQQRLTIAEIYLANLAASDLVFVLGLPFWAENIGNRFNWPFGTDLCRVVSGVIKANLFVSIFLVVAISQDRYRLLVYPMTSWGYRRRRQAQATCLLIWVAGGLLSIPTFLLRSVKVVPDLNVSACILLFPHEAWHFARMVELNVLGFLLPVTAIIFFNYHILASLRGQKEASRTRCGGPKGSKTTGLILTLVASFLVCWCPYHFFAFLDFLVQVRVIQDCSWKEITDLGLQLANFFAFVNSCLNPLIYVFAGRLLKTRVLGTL
The experiment in a line: Functional investigation on the bradykinin 1 receptor (B1R), FLIPR Ca2+ assay, rB1R cells. The format is cell-based. The note with it: test substance 10 μM; CHO K1 cells transfected with rat B1R gene; Fluo-4 Ca2+ signal; agonist Des-Arg9-bradykinin at EC80; % of maximum achievable inhibition; read-out: B1R antagonism, rat [10 μM] % inhibition. On the procedure: (§1) The agonistic or antagonistic action of substances on the bradykinin 1 receptor (B1R) of the human and rat species can be quantified with ectopically expressing cell lines (CHO K1 cells) and with the aid of a Ca^2+-sensitive dyestuff (Fluo-4) in a fluorescent imaging plate reader (FLIPR). The value in % activation is based on the Ca^2+ signal after addition of Lys-Des-[…]-bradykinin (0.5 nM) or Des-[…]-bradykinin (100 nM). Antagonists lead to a suppression of the Ca^2+inflow after addition of the agonist. % inhibition compared with the maximum achievable inhibition is stated. The agonistic or antagonistic action of substances on the bradykinin 1 receptor (B1R) of the human and rat species can be determined with the following assay. In accordance with this assay, the Ca^2+ inflow through the channel is quantified with the aid of a Ca^2+-sensitive dyestuff (type Fluo-4, Molecular Probes Europe BV, Leiden, Holland) in a fluorescent imaging plate reader (FLIPR, Molecular Devices, Sunnyvale, USA). Chinese hamster ovary cells (CHO K1 cells) transfected stably with the human B1R gene (hB1R cells) or the B1R gene of the rat (rB1R cells) are used. For functional studies, these cells are plated out on black 96-well plates with a clear base (BD Biosciences, Heidelberg, Germany or Greiner, Frickenhausen, Germany) in a density of 20,000-35,000 cells/well. The cells are left overnight at 37° C. and 5% CO2 in culture medium (hB1R cells: Nutrient Mixture Ham's F12, Gibco Invitrogen GmbH, Karlsruhe, Germany or DMEM, Sigma-Aldrich, Taufkirchen, Germany; rB1R cells: D-MEM/F12, Gibco Invitrogen GmbH, Karlsruhe, Germany) with 10 vol. % FBS (foetal bovine serum, Gibco Invitrogen GmbH, Karlsruhe, Germany or PAN Biotech GmbH, Aidenbach, Germany). On the following day, the cells are loaded for 60 min at 37° C. with 2.13 μM Fluo-4 (Molecular Probes Europe BV, Leiden Holland) in HBSS buffer (Hank's buffered saline solution, Gibco Invitrogen GmbH, Karlsruhe, Germany) with 2.5 mM probenecid (Sigma-Aldrich, Taufkirchen, Germany) and 10 mM HEPES (Sigma-Aldrich, Taufkirchen, Germany). The plates are then washed 2× with HBSS buffer, and HBSS buffer which additionally contains 0.1% BSA (bovine serum albumin; Sigma-Aldrich, Taufkirchen, Germany), 5.6 mM glucose and 0.05% gelatine (Merck KGaA, Darmstadt, Germany) is added. After a further incubation of 20 minutes at room temperature, the plates are inserted into the FLIPR for the Ca^2+ measurement. Alternatively, the plates are washed with buffer A (15 mM HEPES, 80 mM NaCl, 5 mM KCl, 1.2 mM CaCl2, 0.7 mM MgSO4, 2 g/l glucose, 2.5 mM probenecid), buffer A is added and the plates are loaded with 2.5 μM Fluo-4 and 0.025% Pluronic F127 (Sigma-Aldrich, Taufkirchen, Germany). Thereafter, the cells are washed 2× with buffer A and incubated for 30 minutes at room temperature with buffer A, which additionally contains 0.05% BSA and 0.05% gelatine, and thereafter inserted into the FLIPR for the Ca^2+ measurement. The Ca^2+-dependent fluorescence is measured here before and after addition of substances (λex=488 nm, λem=540 nm). Quantification is by measurement of the highest fluorescence intensity (FC, fluorescence counts) over time. The FLIPR protocol consists of 2 additions of substance. Test substances (10 μM) are first pipetted on to the cells and the Ca^2+ inflow is compared with the control (hB1R: Lys-Des-[…]-bradykinin>=50 nM; rB1R: Des-[…]-bradykinin 10 μM). This gives the result in % activation based on the Ca^2+ signal after addition of Lys-Des-[…]-bradykinin (>=50 nM) or Des-[…]-bradykinin (10 μM). After incubation for 10-20 minutes, Lys-Des-[…]-bradykinin (hB1R) or Des-[…]-bradykinin (rB1R) at the EC80 concentration is applied and the inflow of Ca^2+ is likewise determined. Antagonists lead to a suppression of the Ca^2+ inflow. The percent inhibition compared to the maximum achievable inhibition is calculated. In order to determine the IC50 value, the substances are added in various concentrations. […]

In assay [2] the target is T2, human B1R receptor (hB1R) (Homo sapiens, UniProt P46663).
T2 construct: expressed in transfected cells; host or cells: CHO K1 cells
T2 sequence (P46663 1-353): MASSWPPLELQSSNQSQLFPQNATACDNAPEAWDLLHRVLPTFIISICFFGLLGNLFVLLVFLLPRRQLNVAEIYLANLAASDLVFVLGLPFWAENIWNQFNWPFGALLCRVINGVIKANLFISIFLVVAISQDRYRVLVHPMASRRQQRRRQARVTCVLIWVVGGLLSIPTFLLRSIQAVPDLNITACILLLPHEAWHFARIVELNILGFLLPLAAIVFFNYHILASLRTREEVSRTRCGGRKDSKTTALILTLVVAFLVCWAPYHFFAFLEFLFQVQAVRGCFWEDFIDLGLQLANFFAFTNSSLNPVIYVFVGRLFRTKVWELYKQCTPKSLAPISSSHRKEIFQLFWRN
Description: Functional investigation on the bradykinin 1 receptor (B1R), FLIPR Ca2+ assay, hB1R cells. To be noted: test substance 10 μM; CHO K1 cells transfected with human B1R gene; Fluo-4 Ca2+ signal; agonist Lys-Des-Arg9-bradykinin at EC80; % of maximum achievable inhibition; read-out: B1R antagonism, human [10 μM] % inhibition. The format is cell-based. Here is the method:
as §1

As to `CN1CCC(N2CCN(S(=O)(=O)CCC[C@@H]3CCCN3S(=O)(=O)c3ccc(Cl)cc3Cl)CC2)CC1` [Example 31, (S)-1-(3-(1-(2,4-Dichlorophenylsulfonyl)pyrrolidin-2-yl)propylsulfonyl)-4-(1-methylpiperidin-4-yl)piperazine], the figures for the inhibition at 10 µM in assay [1] and in assay [2] were 64% and 89%, respectively.
`COc1cc(C)c(S(=O)(=O)N2CCC[C@H]2CCCS(=O)(=O)N2CCN(C3CCN(C)CC3)CC2)c(C)c1` [Example 32, (S)-1-(3-(1-(4-Methoxy-2,6-dimethylphenylsulfonyl)pyrrolidin-2-yl)propylsulfonyl)-4-(1-methylpiperidin-4-yl)piperazine]: the values for the inhibition at 10 µM in assay [1] and in assay [2] were 99% and 105%, respectively.
The matching figures for `CN1CCC(N2CCN(S(=O)(=O)CCC[C@@H]3CCCN3S(=O)(=O)CC(c3ccccc3)c3ccccc3)CC2)CC1` [Example 33, (S)-1-(3-(1-(2,2-Diphenylethylsulfonyl)pyrrolidin-2-yl)propylsulfonyl)-4-(1-methylpiperidin-4-yl)piperazine]: 36% and 98%.
In the same order, the values of `COc1cc(C)c(S(=O)(=O)N2CCC[C@@H]2CCCS(=O)(=O)N2CCN(C3CCN(C)CC3)CC2)c(C)c1` [Example 34, (R)-1-(3-(1-(4-Methoxy-2,6-dimethylphenylsulfonyl)pyrrolidin-2-yl)propylsulfonyl)-4-(1-methylpiperidin-4-yl)piperazine] are 96% and 99%.
Consider `CN1CCC(N2CCN(S(=O)(=O)CCC[C@@H]3CCCN3S(=O)(=O)c3cccc(C(F)(F)F)c3)CC2)CC1` [Example 35, (S)-1-(1-Methylpiperidin-4-yl)-4-(3-(1-(3-(trifluoromethyl)phenylsulfonyl)pyrrolidin-2-yl)propylsulfonyl)piperazine], for which the inhibition at 10 µM is 91% in assay [1] and 23% in assay [2].
In the same order, the values of `COc1cc(C)c(S(=O)(=O)N2C[C@@H](F)C[C@H]2CCCS(=O)(=O)N2CCC(Oc3ccncc3)CC2)c(C)c1` [Example 36, 4-(1-(3-((2R,4S)-4-Fluoro-1-(4-methoxy-2,6-dimethylphenylsulfonyl)pyrrolidin-2-yl)propylsulfonyl)piperidin-4-yloxy)pyridine] are 89% and 95%.
As to `CN1CCC(N2CCN(S(=O)(=O)CC3CCCCN3S(=O)(=O)c3cccc(C(F)(F)F)c3)CC2)CC1` (stereo not drawn) [Example 37, 1-(1-Methylpiperidin-4-yl)-4-((1-(3-(trifluoromethyl)phenylsulfonyl)piperidin-2-yl)methylsulfonyl)piperazine], the inhibition at 10 µM amounted to 40% in assay [1] and 53% in assay [2].
In the same order, the values of `Cc1cc(S(=O)(=O)N2CCCCC2CCS(=O)(=O)N2CCN(C3CCN(C)CC3)CC2)c(C)cc1Cl` (stereo not drawn) [Example 38, 1-(2-(1-(4-Chloro-2,5-dimethylphenylsulfonyl)piperidin-2-yl)ethylsulfonyl)-4-(1-methylpiperidin-4-yl)piperazine dihydrochloride] are 47% and 101%.
`COc1cc(C)c(S(=O)(=O)N2CCCC(CCS(=O)(=O)N3CCC(CCN4CCCC4)CC3)C2)c(C)c1C` (stereo not drawn) [Example 39, 1-(4-Methoxy-2,3,6-trimethylphenylsulfonyl)-3-(2-(4-(2-(pyrrolidin-1-yl)ethyl)piperidin-1-ylsulfonyl)ethyl)piperidine hydrochloride]: the inhibition at 10 µM in assay [1] is 27%; in assay [2], 44%.
Consider `Cc1cc(C)c(S(=O)(=O)N2CCC[C@@H]2CCCS(=O)(=O)N2CCN(C3CCN(C)CC3)CC2)c(C)c1` [Example 41, (R)-1-(3-(1-(Mesitylsulfonyl)pyrrolidin-2-yl)propylsulfonyl)-4-(1-methylpiperidin-4-yl)piperazine dihydrochloride], for which the inhibition at 10 µM stood at 7% in assay [1] and 50% in assay [2].
In the same order, the values of `Cc1cc(C)c(S(=O)(=O)N2CCCC2CCCCS(=O)(=O)N2CCN(C3CCN(C)CC3)CC2)c(C)c1` (stereo not drawn) [Example 42, 1-(4-(1-(Mesitylsulfonyl)pyrrolidin-2-yl)butylsulfonyl)-4-(1-methylpiperidin-4-yl)piperazine dihydrochloride] are 26% and 50%.
For the compound `Cc1cc(S(=O)(=O)N2CCC(CCS(=O)(=O)N3CCN(Cc4cccc(C#N)c4)CC3)C2)c(C)cc1Cl` (stereo not drawn) [Example 43, 3-((4-(2-(1-(4-Chloro-2,5-dimethylphenylsulfonyl)pyrrolidin-3-yl)ethylsulfonyl)piperazin-1-yl)methyl)benzonitrile hydrochloride], the inhibition at 10 µM was 50% in assay [1] and 11% in assay [2].
For the compound `COc1cc(C)c(S(=O)(=O)N2c3ccccc3CC2CCCS(=O)(=O)N2CCC(O)(c3cccnc3)CC2)c(C)c1` (stereo not drawn) [Example 44, 1-(3-(1-(4-Methoxy-2,6-dimethylphenylsulfonyl)indolin-2-yl)propylsulfonyl)-4-(pyridin-3-yl)piperidin-4-ol], the inhibition at 10 µM worked out at 105% in assay [1] and 82% in assay [2].
With `COc1cc(C)c(S(=O)(=O)N2c3ccccc3CC2CCCS(=O)(=O)N2CCC3(CCN(c4ccncc4)CC3)CC2)c(C)c1` (stereo not drawn) [Example 45, 1-(4-Methoxy-2,6-dimethylphenylsulfonyl)-2-(3-(9-(pyridin-4-yl)-3,9-diazaspiro[5.5]undecan-3-ylsulfonyl)propyl)indoline], the inhibition at 10 µM in assay [1] is 102%; in assay [2] it was 98%.
The matching figures for `Cc1cccc(Cl)c1S(=O)(=O)N1CCC[C@H]1CCCS(=O)(=O)N1CCC(Oc2ccncc2)CC1` [Example 46, (S)-4-(1-(3-(1-(2-Chloro-6-methylphenylsulfonyl)pyrrolidin-2-yl)propylsulfonyl)piperidin-4-yloxy)pyridine]: 99% and 80%.
